Laboratory results taken from US20170137481A1, “Use of Cell-Permeable Peptide Inhibitors of the JNK Signal Transduction Pathway for the Treatment of Various Diseases” (Xigen Inflammation Ltd., priority 2014, published 2017).
Non-standard residues stand in square brackets, D forms with d. No end group written: not given here.

What was measured:
[1] = system: acute CYP-induced cystitis in female Sprague-Dawley rats; assay: CYP-induced acute cystitis, intravesical treatment; format: in vivo, rat; settings: 50 mg/mL i.ves.; 24 h post-CYP
Method: (§1) This preclinical model is well-used to test therapeutic approaches for the treatment of interstitial cystitis/painful bladder syndrome (IC/PBS).
(§2) Animals were acclimatized to the laboratory conditions for at least 3 days before the start of any experiments. The animals were allocated to the following four experimental groups (n=10 animals per group):
To induce acute cystitis, a single i.p. injection of CYP at a dose of 150 mg/kg in a final volume of 5 mL/kg was performed. Control rats received physiological saline under the same experimental conditions as CYP (final volume of 5 mL/kg, i.p.).
(§3) On the day of each experiment, weight of rats was recorded.
(§4) Standardized conditions including fixed time-of-day (a.m. to minimize the potential circadian variations in the behaviours responses) and single-experimenter testing of all animals were applied to minimize variability behavior-based pain testing. Visceral pain including allodynia and hyperalgesia was evaluated by applying to the lower abdomen, close to the urinary bladder, a set of 8 calibrated von Frey filaments of increasing forces (1, 2, 4, 6, 8, 10, 26 and 60 g) with an interstimulus interval of 5 seconds. Prior testing, the abdominal area designed for mechanical stimulation of each animal was shaved. Animals were then placed on a raised wire mesh floor under individual transparent Plexiglas box and acclimatized for at least 30 minutes before starting the von Frey test. Filaments were then applied 1-2 seconds through the mesh floor with enough strength to cause the filament to slightly bend. Each filament was tested 3 times. Care was taken to stimulate different areas within the lower abdominal region in the vicinity of the urinary bladder to avoid desensitization.
Urinary bladders were rapidly collected and cleaned from lipoid tissue. […] Finally, wall thickness was measured using a digital caliper by placing the bladder wall between the two outside jaws.

[2] = system: acute CYP-induced cystitis in female Sprague-Dawley rats; assay: CYP-induced acute cystitis, intravenous treatment, visceral pain; format: in vivo, rat; settings: XG-102 2 mg/kg i.v., ibuprofen 10 mg/kg i.v.; 24 h post-CYP
Method: as §1, §2
Control rats received physiological saline under the same experimental conditions as CYP (final volume of 5 mL/kg, i.p.).
as §3
as §4, with “Filaments were then applied 1-2 seconds through the mesh floor with enough strength to cause the filament to slightly bend. Each filament was tested 3 times. Care was taken to stimulate different areas within the lower abdominal region in the vicinity of the urinary bladder to avoid desensitization.” left out

[3] = system: TC-3 cell cultures; assay: Cellular import of fluorescein labeled TAT and TAT-IB1(s) peptides; format: cell-based; settings: 1 μM
Method: The ability of the L- and D-enantiomeric forms of TAT and TAT-IB1(s) peptides (“TAT-IB peptides”) to enter cells was evaluated. L-TAT, D-TAT, L-TAT-IB1(s), and D-TAT-IB1(s) peptides [SEQ ID NOs: 5, 6, 9 and 12, respectively] were labeled by N-terminal addition of a glycine residue conjugated to fluorescein. Labeled peptides (1 μM) were added to TC-3 cell cultures, which were maintained as described in Example 3. At predetermined times cells were washed with PBS and fixed for five minutes in ice-cold methanol-acetone (1:1) before being examined under a fluorescence microscope. Fluorescein-labeled BSA (1 μM, 12 moles/mole BSA) was used as a control.

[4] = system: TC-3 cells; assay: IL-1 induced pancreatic beta-cell death with peptides; format: cell-based; settings: 1 μM single addition
Method: Inhibition of IL-1 induced pancreatic beta-cell death by the D-TAT-IB1(s) peptide was analyzed. TC-3 cells were incubated as described above for 30 minutes with one single addition of the indicated peptides (1 μM), then IL-1 (10 ng/ml) was added.
Apoptotic cells were then counted after two days of incubation with IL-1 by use of Propidium Iodide and Hoechst 33342 nuclear staining. A minimum of 1,000 cells were counted for each experiment. Standard Error of the Means (SEM) are indicated, n=5.
Long term inhibition of IL-1 P induced cell-death by the D-TAT-IB1 peptide was also analyzed. TC-3 cells were incubated as above for 30 minutes with one single addition of the indicated peptides (1 μM), then IL-1 (10 ng/ml) was added, followed by addition of the cytokine every two days. Apoptotic cells were then counted after 15 days of incubation with IL-1 by use of propidium iodide and Hoechst 33342 nuclear staining. […] A minimum of 1.000 cells were counted for each experiment.

[5] = system: AP-1 DNA binding complex in HeLa cell nuclear extracts; assay: AP-1 gel retardation assay; format: cell-based; settings: TNF-alpha 5 ng/ml
[6] = system: JNK; settings: JBDs; cited from earlier work
[7] = system: recombinant JNK1, JNK2 and JNK3; assay: Solid phase kinase assay, phosphorylation of c-Jun, ATF2 and Elk1; format: biochemical; settings: dose response 0-25 μM
Method: (§5) The effects of the peptides on JNKs-mediated phosphorylation of their target transcription factors were investigated in vitro. Recombinant and non activated JNK1, JNK2 and JNK3 were produced using a TRANSCRIPTION AND TRANSLATION rabbit reticulocyte lysate kit (Promega) and used in solid phase kinase assays with c-jun, ATF2 and Elk1, either alone or fused to glutathione-S-transferase (GST), as substrates. Dose response studies were performed wherein L-TAT or L-TAT-IB1 (s) peptides (0-25 μM) were mixed with the recombinant JNK1, JNK2, or JNK3 kinases in reaction buffer (20 mM Tris-acetate, 1 mM EGTA, 10 mM p-nitrophenyl-phosphate (pNPP), 5 mM sodium pyrophosphate, 10 mM p-glycerophosphate, 1 mM dithiothreitol) for 20 minutes. The kinase reactions were then initiated by the addition of 10 mM MgCl2 and […] ^33P-gamma-dATP and 1 μg of either GST-Jun (aa 1-89), GST-AFT2 (aa 1-96) or GST-ELK1 (aa 307-428). GST-fusion proteins were purchased from Stratagene (La Jolla, Calif.).
(§6) Ten μL of glutathione-agarose beads were also added to the mixture. Reaction products were then separated by SDS-PAGE on a denaturing 10% polyacrylamide gel. […] The ability of D-TAT, D-TAT-IB1(s) and L-TAT-IB1(s) peptides (0-250 μM dosage study) to inhibit GST-Jun (aa 1-73) phosphorylation by recombinant JNK1, JNK2, and JNK3 by were analyzed as described above. […]

[8] = target: T1, JNK3 (Homo sapiens, UniProt P53779); assay: Solid phase kinase assay, JNK3 phosphorylation of Elk1; format: biochemical; settings: 0-25 μM
T1 construct: host or cells: cell-free: rabbit reticulocyte lysate transcription/translation
T1 sequence (P53779 whole entry, species assumed): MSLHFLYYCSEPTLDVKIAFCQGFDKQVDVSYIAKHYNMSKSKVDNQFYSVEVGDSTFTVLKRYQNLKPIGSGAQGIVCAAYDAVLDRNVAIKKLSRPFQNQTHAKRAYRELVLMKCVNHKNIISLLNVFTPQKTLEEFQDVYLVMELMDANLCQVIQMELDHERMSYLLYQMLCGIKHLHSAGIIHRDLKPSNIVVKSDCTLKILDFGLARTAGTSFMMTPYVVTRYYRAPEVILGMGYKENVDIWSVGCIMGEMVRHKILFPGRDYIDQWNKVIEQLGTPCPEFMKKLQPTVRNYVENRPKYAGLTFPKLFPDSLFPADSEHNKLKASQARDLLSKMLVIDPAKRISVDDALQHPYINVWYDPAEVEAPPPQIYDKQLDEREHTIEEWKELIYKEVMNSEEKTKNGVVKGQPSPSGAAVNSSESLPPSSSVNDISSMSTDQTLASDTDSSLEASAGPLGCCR
Method: as §5, §6

[9] = system: JNKs from UV-light irradiated HeLa cells or IL-1 treated TC-3 cells; assay: c-Jun phosphorylation by activated JNKs pulled down with GST-Jun; format: biochemical; settings: 25 μM
Method: The effects of the L-TAT or L-TAT-IB1(s) peptides as defined herein on JNKs activated by stressful stimuli were evaluated using GST-Jun to pull down JNKs from UV-light irradiated HeLa cells or IL-1 treated PTC cells. PTC cells were cultured as described above. HeLa cells were cultured in DMEM medium supplemented with 10% Fetal Calf Serum, 100 μg/mL Streptomycin, 100 units/ml Penicillin and 2 mM Glutamine. One hour prior to being used for cell extract preparation, PTC cells were activated with IL-1 as described above, whereas HeLa cells were activated by UV-light (20 J/m^2). Cell extracts were prepared from control, UV-light irradiated HeLa cells and IL-1 treated TC-3 cells by scraping the cell cultures in lysis buffer (20 mM Tris-acetate, 1 mM EGTA, 1% Triton X-100, 10 mM p-nitrophenyl-phosphate, 5 mM sodium pyrophosphate, 10 mMP-glycerophosphate, 1 mM dithiothreitol). Debris was removed by centrifugation for five minutes at 15,000 rpm in an SS-34 Beckman rotor. One-hundred μg extracts were incubated for one hour at room temperature with one μg GST-jun (amino acids 1-89) and 10 μL of glutathione-agarose beads (Sigma). Following four washes with the scraping buffer, the beads were resuspended in the same buffer supplemented with L-TAT or L-TAT-IB1(s) peptides (25 μM) for 20 minutes. […]

[10] = system: JNK mediated activation of c-Jun in HeLa cells; assay: GAL4-Jun luciferase reporter after MKK4/MKK7 co-transfection; format: cell-based; settings: 1 μM
Description: To determine whether the cell-permeable peptides as defined herein could block JNK signaling in vivo, we used a heterologous GAL4 system. HeLa cells, cultured as described above, were co-transfected with the 5×GAL-LUC reporter vector together with the GAL-Jun expression construct (Stratagene) comprising the activation domain of c-Jun (amino acids 1-89) linked to the GAL4 DNA-binding domain. Activation of JNK was achieved by the co-transfection of vectors expressing the directly upstream kinases MKK4 and MKK7 (see Whitmarsh et al., Science 285: 1573 (1999)). Briefly, 3×10^5 cells were transfected with the plasmids in 3.5-cm dishes using DOTAP (Boehringer Mannheim) following instructions from the manufacturer. For experiments involving GAL-Jun, 20 ng of the plasmid was transfected with 1 μg of the reporter plasmid pFR-Luc (Stratagene) and 0.5 μg of either MKK4 or MKK7 expressing plasmids. Three hours following transfection, cell media were changed and TAT and TAT-IB1(s) peptides (1 μM) were added. The luciferase activities were measured 16 hours later using the “Dual Reporter System” from Promega after normalization to protein content. […] Because HeLa cells express JNK1 and JNK2 isoforms but not JNK3, we transfected cells with JNK3.

## CC(C)Cc1ccc(C(C)C(=O)O)cc1 (stereo not shown) [ibuprofen]
[1]
  haemorrhage scores: no significant change was observed regarding haemorrhage scores
  nociceptive scores versus vehicle: significant decrease of nociceptive scores
  nociceptive threshold versus vehicle: significantly increased
  urinary bladder wall thickness: a significant decrease was observed in urinary bladder wall thickness
[2]
  nociceptive scores versus vehicle: significantly decrease nociceptive scores
  nociceptive threshold versus vehicle: significantly increased

## GRKKRRQRRR (Description of sequence Peptide L-TAT (see Table 1))
[3]
  entry into cells: efficiently and rapidly (less than five minutes) entered cells

## GRKKRRQRRRPPRPKRPTTLNLFPQVPRSQD (Description of sequence L-TAT-IB1 (s) (see Table 1)) [L-TAT-IB1(s)]
[3]
  entry into cells: efficiently and rapidly (less than five minutes) entered cells
[4]; 15 days IL-1
  long term protection from IL-1 induced cell death: not
[5]
  formation of the AP-1 DNA binding complex: decrease the formation of the AP-1 DNA binding complex in the presence of TNF-alpha

## IPSPSVEEPHKHRPTTLRLTTLGAQDS (Description of sequence Peptide IB2-long (see Table 1))
[6]
  efficiency in binding JNK versus c-Jun or ATF2: approximately 100 fold

## PGTGCGDTYRPKRPTTLNLFPQVPRSQDT (Description of sequence peptide IB1-long (see Table 1))
[6]
  efficiency in binding JNK versus c-Jun or ATF2: approximately 100 fold

## RRRQRRKKRG (D-amino acids; Description of sequence Peptide D-TAT (see Table 1))
[3]
  entry into cells: efficiently and rapidly (less than five minutes) entered cells

## TAT-IB(s): TAT-IB1(s) peptide of Examples 5 to 7, there the L-TAT-IB1(s) peptide (GRKKRRQRRRPPRPKRPTTLNLFPQVPRSQD)
[7]
  peptide dose with nearly complete inhibition of c-Jun, ATF2 and Elk1 phosphorylation by JNKs: 2.5 µM
[8]
  inhibition of JNK3 phosphorylation of Elk1: absence of TAT-IB(s) inhibition of JNK3 phosphorylation of Elk1
[9]
  phosphorylation of c-Jun by activated JNKs: efficiently prevented phosphorylation of c-Jun by activated JNKs
[10]
  activation of c-Jun in cells transfected with JNK3: inhibited JNK2 mediated activation of c-Jun
[10]; luciferase 16 hours later
  activation of c-Jun following MKK4 and MKK7 mediated activation of JNK: blocked activation of c-Jun following MKK4 and MKK7 mediated activation of JNK

## TDQSRPVQPFLNLTTPRKPRYTDPPRRRQRRKKRG ([dT][dD][dQ][dS][dR][dP][dV][dQ][dP][dF][dL][dN][dL][dT][dT][dP][dR][dK][dP][dR][dY][dT][dD][dP][dP][dR][dR][dR][dQ][dR][dR][dK][dK][dR]G) [D-TAT-IB1]
[4]; two days IL-1
  IL-1 induced apoptosis: decreased IL-1 induced apoptosis to a similar extent as L-TAT-IB peptides
